Measurements taken from US7759486B2, “2,4,5-Trisubstituted pyrimidine compounds” (GlaxoSmithKline LLC, priority 2000, dated 2010).

melting point [°C] | SMILES
> 280 | Cc1cc(F)ccc1-c1nc(O)nc2c1ccc(=O)n2-c1ccccc1F (hydrate or solvate) [Example 144, 2-Hydroxy-4-(4-fluoro-2-methylphenyl)-8-(2-fluorophenyl)-8H-pyrido[2,3-d]pyrimidin-7-one]
127 to 128 | CSCCCOc1nc(-c2ccc(F)cc2C)c2ccc(=O)n(-c3c(F)cccc3F)c2n1 [Example 127, 8-(2,6-Difluorophenyl)-4-(4-fluoro-2-methylphenyl)-2-(3-methylsulfanylpropoxy)-8H-pyrido[2,3-d]pyrimidin-7-one]
160 to 162 | Cc1cc(F)ccc1-c1nc(OCCCS(C)(=O)=O)nc2c1ccc(=O)n2-c1c(F)cccc1F [Example 128, 8-(2,6-Difluorophenyl)-4-(4-fluoro-2-methylphenyl)-2-(3-methanesulfonylpropoxy)-8H-pyrido[2,3-d]pyrimidin-7-one]
96 to 99 | Cc1cc(F)ccc1-c1nc(OCCN)nc2c1ccc(=O)n2-c1c(F)cccc1F [Example 131, 8-(2,6-Difluorophenyl)-4-(4-fluoro-2-methylphenyl)-2-(2-aminoethoxy)-8H-pyrido[2,3-d]pyrimidin-7-one]
75 to 79 | CC(=O)NCCOc1nc(-c2ccc(F)cc2C)c2ccc(=O)n(-c3c(F)cccc3F)c2n1 [Example 132, 8-(2,6-Difluorophenyl)-4-(4-fluoro-2-methylphenyl)-2-(2-acetylaminoethoxy)-8H-pyrido[2,3-d]pyrimidin-7-one]
77 to 81 | Cc1cc(F)ccc1-c1nc(OCC(CO)CO)nc2c1ccc(=O)n2-c1c(F)cccc1F [Example 133, 8-(2,6-Difluorophenyl)-4-(4-fluoro-2-methylphenyl)-2-(3-hydroxy-2-hydroxymethylpropoxy)-8H-pyrido[2,3-d]pyrimidin-7-one]
95 to 99 | Cc1cc(F)ccc1-c1nc(OCCNS(C)(=O)=O)nc2c1ccc(=O)n2-c1c(F)cccc1F [Example 134, 8-(2,6-Difluorophenyl)-4-(4-fluoro-2-methylphenyl)-2-(2-methanesulfonyl-aminoethoxy)-8H-pyrido[2,3-d]pyrimidin-7-one]
89 to 92 | Cc1cc(F)ccc1-c1nc(OCCN(C)S(C)(=O)=O)nc2c1ccc(=O)n2-c1c(F)cccc1F [Example 135, 8-(2,6-Difluorophenyl)-4-(4-fluoro-2-methylphenyl)-2-(2-N-methanesulfonyl-N-methylaminoethoxy)-8H-pyrido[2,3-d]pyrimidin-7-one]
120 to 124 | Cc1cc(F)ccc1-c1nc(NCCO)nc2c1ccc(=O)n2-c1ccccc1F [Example 136, 4-(4-fluoro-2-methylphenyl)-8-(2-fluorophenyl)-2-(2-hydroxylethylamino)-5H-pyrido[2,3-d]pyrimidin-7-one]
96 to 101 | Cc1cc(F)ccc1-c1nc(N[C@@H](C)CO)nc2c1ccc(=O)n2-c1c(F)cccc1F [Example 137, (S)-4-(4-fluoro-2-methylphenyl)-8-(2,6-difluorophenyl)-2-[(1-hydroxyprop-2-yl)amino]-8H-pyrido[2,3-d]pyrimidin-7-one]
90 to 95 | Cc1cc(F)ccc1-c1nc(N[C@H](C)CO)nc2c1ccc(=O)n2-c1c(F)cccc1F [Example 138, (R)-4-(4-fluoro-2-methylphenyl)-8-(2,6-difluorophenyl)-2-[(1-hydroxyprop-2-yl)amino]-8H-pyrido[2,3-d]pyrimidin-7-one]
99 to 105 | Cc1cc(F)ccc1-c1nc(NC(C)(C)CO)nc2c1ccc(=O)n2-c1c(F)cccc1F [Example 139, 4-(4-fluoro-2-methylphenyl)-8-(2,6-difluorophenyl)-2-(1,1-dimethyl-2-hydroxyethylamino)-8H-pyrido[2,3-d]pyrimidin-7-one]
176 to 177 | CCNc1nc(-c2ccc(F)cc2C)c2ccc(=O)n(-c3ccccc3F)c2n1 [Example 140, 2-Ethylamino-4-(4-fluoro-2-methylphenyl)-8-(2-fluorophenyl)-8H-pyrido[2,3-d]pyrimidin-7-one]
114 to 120 | Cc1cc(F)ccc1-c1nc(N[C@@H](C)CO)nc2c1ccc(=O)n2-c1ccccc1F [Example 141, (S)-4-(4-fluoro-2-methylphenyl)-8-(2-fluorophenyl)-2-[(1-hydroxyprop-2-yl)amino]-8H-pyrido[2,3-d]pyrimidin-7-one]
116 to 122 | Cc1cc(F)ccc1-c1nc(N[C@H](C)CO)nc2c1ccc(=O)n2-c1ccccc1F [Example 142, (R)-4-(4-fluoro-2-methylphenyl)-8-(2-fluorophenyl)-2-[(1-hydroxyprop-2-yl)amino]-8H-pyrido[2,3-d]pyrimidin-7-one]
106 to 112 | Cc1cc(F)ccc1-c1nc(NC(C)(C)CO)nc2c1ccc(=O)n2-c1ccccc1F [Example 143, 2-(1,1-dimethyl-2-hydroxyethylamino)-4-(4-fluoro-2-methylphenyl)-8-(2 fluorophenyl)-8H-pyrido[2,3-d]pyrimidin-7-one]

melting point [°C] | SMILES
181 to 182 | Cc1cc(F)ccc1-c1nc(NC2CCCCC2)nc2c1ccc(=O)n2-c1ccccc1F [Example 145, 2-Cyclohexylamino-4-(4-fluoro-2-methylphenyl)-8-(2-fluorophenyl)-5H-pyrido[2,3-d]pyrimidin-7-one]
211 to 212 | Cc1cc(F)ccc1-c1nc(NC2CCOCC2)nc2c1ccc(=O)n2-c1ccccc1F [Example 146, 2-(Tetrahydropyran-4-ylamino)-4-(4-fluoro-2-methylphenyl)-8-(2-fluorophenyl)-8H-pyrido[2,3-d]pyrimidin-7-one]
195 to 196 | CCNc1nc(-c2ccc(F)cc2C)c2ccc(=O)n(-c3c(F)cccc3F)c2n1 [Example 147, 2-Ethylamino-4-(4-fluoro-2-methylphenyl)-8-(2,6-difluorophenyl)-8H-pyrido[2,3-d]pyrimidin-7-one]
218 to 219 | Cc1cc(F)ccc1-c1nc(NC2CCCCC2)nc2c1ccc(=O)n2-c1c(F)cccc1F [Example 148, 2-Cyclohexylamino-4-(4-fluoro-2-methylphenyl)-8-(2,6-difluorophenyl)-8H-pyrido[2,3-d]pyrimidin-7-one]
231 to 232 | Cc1cc(F)ccc1-c1nc(NC2CCOCC2)nc2c1ccc(=O)n2-c1c(F)cccc1F [Example 149, 2-(Tetrahydropyran-4-ylamino)-4-(4-fluoro-2-methylphenyl)-8-(2,6-difluorophenyl)-8H-pyrido[2,3-d]pyrimidin-7-one]
187 to 188 | Cc1cc(F)ccc1-c1nc(NCC(F)(F)F)nc2c1ccc(=O)n2-c1ccccc1F [Example 150, 2-(2,2,2-Trifluoroethylamino)-4-(4-fluoro-2-methylphenyl)-8-(2-fluorophenyl)-8H-pyrido[2,3-d]pyrimidin-7-one]
148 to 151 | Cc1cc(F)ccc1-c1nc(N[C@H]2CC[C@H](O)CC2)nc2c1ccc(=O)n2-c1ccccc1F [Example 151, trans-2-(4-Hydroxycyclohexylamino)-4-(4-fluoro-2-methylphenyl)-8-(2-fluorophenyl)-8H-pyrido[2,3-d]pyrimidin-7-one]
160 to 162 | Cc1cc(F)ccc1-c1nc(NC(C)(CO)CO)nc2c1ccc(=O)n2-c1ccccc1F [Example 152, 2-(1-hydroxymethyl-1-methyl-2-hydroxyethylamino)-4-(4-fluoro-2-methylphenyl)-8-(2-fluorophenyl)-8H-pyrido[2,3-d]pyrimidin-7-one]
195 to 196 | Cc1cc(F)ccc1-c1nc(NCC(F)(F)F)nc2c1ccc(=O)n2-c1c(F)cccc1F [Example 153, 2-(2,2,2-Trifluoroethylamino)-4-(4-fluoro-2-methylphenyl)-8-(2,6-difluorophenyl)-8H-pyrido[2,3-d]pyrimidin-7-one]
158 to 160 | Cc1cc(F)ccc1-c1nc(NC(C)(CO)CO)nc2c1ccc(=O)n2-c1c(F)cccc1F [Example 154, 2-(1-hydroxymethyl-1-methyl-2-hydroxyethylamino)-4-(4-fluoro-2-methylphenyl)-8-(2,6-difluorophenyl)-8H-pyrido[2,3-d]pyrimidin-7-one]
158 to 160 | Cc1cc(F)ccc1-c1nc(N[C@H]2CC[C@H](O)CC2)nc2c1ccc(=O)n2-c1c(F)cccc1F [Example 155, trans-2-(4-Hydroxycyclohexylamino)-4-(4-fluoro-2-methylphenyl)-8-(2,6-difluorophenyl)-8H-pyrido[2,3-d]pyrimidin-7-one]
137 to 139 | CCOc1nc(-c2ccc(F)cc2C)c2ccc(=O)n(-c3ccccc3F)c2n1 [Example 156, 2-Ethoxy-4-(4-fluoro-2-methylphenyl)-8-(2-fluorophenyl)-8H-pyrido[2,3-d]pyrimidin-7-one]
130 to 133 | CCNC(=O)NCCNc1nc(-c2ccc(F)cc2C)c2ccc(=O)n(-c3c(F)cccc3F)c2n1 [Example 158, 1-[2-[8-(2,6-Difluorophenyl)-4-(4-fluoro-2-methylphenyl)-7-oxo-7,8-dihydro-pyrido[2,3-d]pyrimidin-2-ylamino]ethyl]-3-ethylurea]
142 to 148 | Cc1cc(F)ccc1-c1nc(NCCNC(=O)Nc2ccccc2)nc2c1ccc(=O)n2-c1c(F)cccc1F [Example 159]
178 to 183 | Cc1cc(F)ccc1-c1nc(NCCNC(=O)NC2CCCCC2)nc2c1ccc(=O)n2-c1c(F)cccc1F [Example 160, 1-[2-[8-(2,6-Difluorophenyl)-4-(4-fluoro-2-methylphenyl)-7-oxo-7,8-dihydro-pyrido[2,3-d]pyrimidin-2-ylamino]ethyl]-3-cyclohexylurea]
131 to 144 | Cc1cc(F)ccc1-c1nc(NCCNC(=O)Nc2cccc(F)c2)nc2c1ccc(=O)n2-c1c(F)cccc1F [Example 161, 1-[2-[8-(2,6-Difluorophenyl)-4-(4-fluoro-2-methylphenyl)-7-oxo-7,8-dihydro-pyrido[2,3-d]pyrimidin-2-ylamino]ethyl]-3-[3-fluorophenyl]urea]

SMILES | melting point [°C]
Cc1cc(F)ccc1-c1nc(OCCNC(=O)OC(C)(C)C)nc2c1ccc(=O)n2-c1c(F)cccc1F [Example 130, 8-(2,6-Difluorophenyl)-4-(4-fluoro-2-methylphenyl)-2-[2-(tert-butoxycarbonylamino)ethoxy]-8H-pyrido[2,3-d]pyrimidin-7-one] | 103 to 105
